Experimental data: patent publication US8609409B2, “Methods and compositions for cell culture platform” (Clemson University, priority 2009, dated 2013)
Entries after “also recorded” stand apart in the source; their conditions may differ. Where no end group is shown, it is not given here.

Columns and labels:
[1] = tested on: Human neurospheres (hNPCs); test: Human neurospheres cultured inside hydrogels conjugated with peptides; format: cell-based
Method: Neurospheres with uniform sizes were fabricated using a robotic fabrication system developed in our lab. Briefly, stamps with micronipple array were designed in SolidWorks and fabricated using ultra-precision lathe. The automatic neurospheres fabricator was built on a TT-C3-4040 robot (IAI Corporation, Shizuoka, Japan) with electric triggered gripper to pick up the stamp and pipette tip uptake and ejection actuator to handle liquid. Agarose solution (2% w/w) was prepared by built-in heating elements in the robot platform. The robot was programmed to first add agarose solution to culture dishes. Then the robot picked up the stamp with micronipple arrays on the bottom and pressed on the agarose solution at room temperature for 2 min. Then the highly uniform size microwells were formed in the agarose gel. Human NPC suspension was uptake by the robot and added to the culture well with microwell arrays. After 24 h of culture at 37° C. and 5% CO2, uniform sized neurospheres were formed for this study use. For 3D culture, human neurospheres with uniform size were mixed with hydrogel precursor solutions before hydrogel formation.
Viability of cells inside hydrogels was examined using LIVE/DEAD Viability Kit, which is a two color fluorescent assay based on differential permeability of live and dead cells and allows preservation of the distinctive staining pattern for a couple of hours after post-fixation with 4% (w/v) glutaraldehyde. Live cells were stained with green fluorescent SYTO 10; and dead cells with compromised cell membranes were stained with red fluorescent ethidium homodimer-2. […]
We quantified the cell migration by taking measurements of the distance between the edge of spheres and the cell bodies at their outer perimeters. FIG. 26 presents quantification of cell migration from neurospheres cultured inside hydrogels conjugated with lam-IKVAV of 100 μM and our novel IKVAV peptide of different concentrations of 0, 10, 50, and 100 μM at the day 3, 7, and 21. […]

[2] = tested on: Human neural progenitor cells (hNPCs); test: hNPC differentiation on coated cover slips; format: cell-based; details: 2 weeks, media without FGF-2 and EGF
Method: (§1) Human neural progenitor cells were obtained from Millipore (Billerica, Mass.). The stem cell is an immortalized neural progenitor cell line derived from the ventral mesencephalon region of human fetal brain and immortalized by retroviral transduction with the v-myc oncogene. In conventional culture, laminin (20 μg/mL) was used to coat tissue culture plastic-wares at least 2 h before hNPC seeding. Human NPCs were maintained in ReNcell Neural Stem Cell Medium (Millipore) with FGF-2 (20 ng/mL) and EGF (20 ng/mL). Human NPCs were incubated at 37° C. under 5% CO2 and used before passage 5 in this study. For cell adhesion assays, cells were removed from the plate using Accutase, aspirated in growth media, and seeded on peptide or laminin coated substrates at a density of 50, 000 cells/cm^2. For differentiation study, hNPCs were cultured with the medium without FGF-2 and EGF.
The differentiation of hNPCs on the tested surfaces was assayed by immunocytochemistry. Human NPCs were cultured for 2 weeks with differentiation media without growth factors FGF-2 and EGF. The cells were fixed with 4% (w/v) paraformaldehyde, treated with 5% goat serum in PBS to block non-specific reactivity and incubated overnight at 4° C. with primary antibodies, such as β III tubulin and glial fibrillary acidic protein (GFAP). After washing with PBS three times, the samples were incubated with the secondary antibodies at room temperature for 3 h. Then the nuclei were counterstained with DAPI for 30 min. The samples were imaged using the same microscope as described before. At least 6 random fields per surface were analyzed for each group.

[3] = tested on: Human neural progenitor cells (hNPCs); test: hNPC attachment, morphology and proliferation on gold-coated cover slips; format: cell-based; details: for hNPC attachment: day 1; for state of attached hNPCs: day 10
Method: as §1
The lam-IKVAV and our synthesized peptide were conjugated to gold-coated cover slips. For gold-coating on glass surfaces, cover slips were first cleaned with ethanol by sonication for 30 min. Then gold was coated on the cover slips by a sputter coater. For peptide and laminin coating, the peptide (150 μg/mL or 100 μM) or laminin (20 μg/mL) solutions were applied on the cover slips for at least 2 h. Then the solutions were removed from the slips and washed with phosphate buffered saline (PBS) for three times. Atomic force microscope (AFM) was used to examine the 3D configuration of the peptides on the surface.
To determine whether peptide-functionalized surfaces can support cell attachment and long-term culture and proliferation, hNPCs were cultured in complete growth medium, which contains FGF-2 and EGF to maintain hNPCs in the undifferentiated state. Cells were incubated at 37° C. with media changed every other day as we routinely culture hNPCs in laminin coated substrates. At the day 1, 5, and 10, cells were assayed with CyQuant (Invitrogen). The cell number was generated through a standard curve.
(§2) Morphology of cells was examined by immunostaining of actin. Cells were fixed with 4% (w/v) paraformaldehyde, permeabilized with 0.5% Triton X-100 (t-octylphenoxyplyethoxy-ethanol), and stained with Alexa Fluor-543 Phalloidin for 30 min. The nuclei were counterstained with 1 μg/mL DAPI for 30 min. The cells were imaged using a Leica TCS SP5 laser scanning confocal microscope (Bannockburn, Ill.).

[4] = Rheological characterization of PEG hydrogels conjugated with peptides; format: physicochemical; details: 4-arm thiolated PEG 2% + PEGTA 2%, our peptide 10, 50, 100 μM; for start of gelation process (G′>G″): 37° C., lam-IKVAV 100 μM
Method: Rheometer (AR1000, TA Instruments) was used to measure hydrogel mechanical properties, such as storage modulus (G′) and loss modulus (G″), and gelation time^8. Briefly, the time sweep was performed to monitor the in situ gelation at 37° C., recording the temporal evolution of G′ and G″. Frequency sweep test was used to obtain information about the stability of hydrogel structures. The stress sweep was set up by holding the frequency 1 Hz constant while increasing the stress level from 1 to 10 Pa. […] Oscillatory stress sweep allowed determination of G′ of hydrogels.
(§3) The lam-IKVAV peptide and our synthesized peptide of different concentrations were conjugated to PEG hydrogels through addition reaction of peptide cys thiols onto the ends of a PEGTA crosslinker as described before^9. Briefly, peptides containing stock solutions (100 μM) were prepared in the PEGTA stock solution (2% w/w) and stirred for 2 h at room temperature. In the peptide-linker stock solutions, the molar ratio of peptides to PEGTA was 1:20. The reaction kinetics of conjugate addition of cys-containing IKVAV peptides to PEGTA was followed using 5,5′-dithio-bis(2-nitrobenzoic acid) (DTNB) reagent according to previous study^9. Additional PEGTA solutions with lower peptide concentrations of 50 and 10 μM were prepared by diluting the stock solution with peptide-free […] solution (peptide: PEGTA: 1:40 and 1:200, respectively). Then PEGTA solutions containing different concentrations of peptides were added to 4-arm thiolated PEG (2% w/w) solution and mixed thoroughly to form hydrogels.

[5] = tested on: Human neural progenitor cells (hNPCs); test: hNPCs cultured on the surface of hydrogels conjugated with peptides; format: cell-based; details: for hNPC attachment and proliferation on hydrogel surface: lam-IKVAV 100 μM, our peptide 10 and 100 μM
Method: as §3, §2
Human NPCs were cultured on the surface of hydrogels with maintain media for 7 days. Without any bioactive peptide, hNPCs could not attach on the surface of blank PEG hydrogels (FIG. 22B). The cells formed spheres by themselves at the day 3. […] These attached cells proliferated on the surface as the function of time (FIGS. 22C and 22D). […] There was no difference about the morphology of hNPCs between these two groups.

in vitro cell cultures = test: safety and cytotoxic profile of genipin; format: cell-based
Text: Chitosan and gelatin are two naturally occurring polymers. Chitosan is a polysaccharide formed by cross linkage of multiple monosaccharide units. It has active acetyl groups available for cross linkage. At acidic pH, chitosan is able to undergo polymerization. Gelatin is a peptide polymer and chemically derived from denatured collagen. […] Chitosan and gelatin co-polymer can be created by mixing chitosan with gelatin using a standard and well known procedure that involves creating acidic pH for chitosan polymerization followed by mixing with heated and stirred gelatin solution. However there are two disadvantages of this approach—high osmolarity of the resultant solution (>500 mM) and acidic pH. There are also concerns for cytotoxicity to biological tissues at such high concentrations. These disadvantages render the use of this copolymer useless for clinical application, In the present invention, chitosan and gelatin were cross linked by two different approaches—the first was a covalent linkage using genipin followed by using ionic cross linkage using glycerol phosphate. Genipin is a plant derived cross linker and quite cheap. […] This concentration of genipin was added to chitosan and gelatin mixture. Genipin is able to covalently link both the saccharide and amine groups available in chitosan and gelatin, respectively. This creates a polysaccharide-peptide cross linkage. […]

Molecule	peptide density with maximum enhancement of cell migration ([1]; conjugated to PEG hydrogels)	distance of hNSCs migration from neurospheres ([1]; peptide 10 μM, day 3, 7 and 21)	effect on cell migration from neurospheres ([1]; peptide concentration higher than 10 μM)	cells differentiated into astrocytes (GFAP+) [2]	cells differentiated into neurons (β III tubulin+) [2]	cells differentiated into astrocytes (GFAP+) ([2]; listed as our short peptide)	attachment and proliferation compared with laminin coated surface [3]	hNPC morphology / spreading [3]	hNPC attachment [3]	state of attached hNPCs [3]	start of gelation process (G′>G″) [4]	storage modulus G′ ([4]; at 2 h)	hNPC morphology on hydrogel surface ([5]; day 7, 10 and 100 μM)	hNPC attachment and proliferation on hydrogel surface [5]	hNPC attachment and proliferation on hydrogel surface ([5]; listed as our short peptide)	concentration found to be safe (in vitro cell cultures)
Ac-Cys-Cys-Arg-Arg-Ile-Lys-Val-Ala-Val-Trp-Leu-Cys (Ac-CCRRIKVAVWLC-OH; cysteine pairing not given here) [our novel peptide]	10 µM	2 fold	inhibitory effects on cell migration	33%	54%	about 30%	no significant difference	spread more evenly	significantly much more cells attached compared to lam-IKVAV	totally confluent on the whole surface	40 min	about 600 Pa	displayed spreading cytoskeletons	improved hNPC attachment, spreading and proliferation	cells attached at the day 1	–
laminin: mouse laminin, whole ECM protein used as coating (20 μg/mL) [reference compound]	–	–	–	74%	11%	–	–	–	–	–	–	–	–	–	–	–
CSRARKQAASIKVAVSADR [lam-IKVAV, commercial laminin IKVAV peptide from American Peptide Company, reference compound]	–	–	–	–	–	–	–	preferred to aggregate together	very few cells attached	floated off the surface	30 min	–	–	aggregated together; also recorded: did not support any hNPC attachment	–	–
COC(=O)C1=CO[C@@H](O)[C@@H]2C(CO)=CC[C@H]12 [genipin]	–	–	–	–	–	–	–	–	–	–	–	–	–	–	–	400 µM
